Entries after “also recorded” stand apart in the source; their conditions may differ.
Columns and labels:
[1] = system: SK-Br3 breast cancer cells; assay: MTT cytotoxicity assay, SK-Br3 breast cancer cells; type: cell-based, human; settings: Homo sapiens, SK-BR-3, 48 h, MTT, 48 h, read-out: IC50, growth inhibition, SK-Br3
Procedure: (§1) MCF-7 and MDA-MB-231 breast cancer cells were obtained from the American Type Culture Collection (ATCC) and were routinely grown in Dulbecco's modified Eagle's medium (DMEM, Gibco) containing 10% fetal bovine serum (FBS, Bio-Whittaker), 1% L-glutamine, 1% sodium pyruvate, 50 U/mL penicillin and 50 μg/mL streptomycin. SK-Br3 breast cancer cells were obtained from Eucellbank (Universidad de Barcelona, Spain) and were passaged in McCoy's 5 A medium containing 10% FBS, 1% L-glutamine, 1% sodium pyruvate, 50 U/mL penicillin and 50 μg/mL streptomycin. Non-malignant fibroblasts N-1 were obtained from Eucellbank (Universidad de Barcelona, Spain) and were passaged in DMEM medium containing 10% FBS, 1% L-glutamine, 1% sodium pyruvate, 50 U/mL penicillin and 50 μg/mL streptomycin. The cells remained free of Mycoplasma and were propagated in adherent culture according to established protocols. Cells were maintained at 37° C. in a humidified atmosphere of 95% air and 5% CO2.
(§2) Drug sensitivity was determined using a standard colorimetric MTT (3-4,5-dimethylthiazol-2-yl-2,5-diphenyltetrazolium bromide) assay. Briefly, cells were plated out at a density of 7×10^3 cells/100 μL/well in 96-well microtitre plates and allowed an overnight period for attachment. Then the medium was removed and fresh medium along with various concentrations of the tested compound were added to the cultures for a period of 48 h. Following the treatment, the cells were fed with drug-free medium (100 μL/well) and 10 μL of MTT solution (5 mg/mL; Sigma, St. Louis, Mo.), and the incubation was prolonged for 3 h at 37° C. After carefully removing the supernatants, the MTT-formazan crystals formed by metabolically viable cells were dissolved in dimethyl sulphoxide (100 μL/well) and the absorbance was measured at 570 nm in a multi-well plate reader (Model Anthos Labtec 2010 1.7 reader).

[2] = system: MCF-7 breast cancer cells; assay: MTT cytotoxicity assay, MCF-7 breast cancer cells; type: cell-based, human; settings: Homo sapiens, MCF7, MCF-7 cells, 48 h, read-out: IC50, growth inhibition, MCF-7
Procedure: as §1, §2

[3] = system: Non-malignant fibroblasts N-1; assay: MTT cytotoxicity assay, non-malignant fibroblasts N-1; type: cell-based; settings: for IC50: Fibroblast, non-malignant fibroblasts, MTT, 48 h, read-out: IC50, growth inhibition, Fibroblasts; for effects in cell death / morphology changes in non-malignant cells: up to doses three-fold their cytotoxic IC50 value in tumoral cells
Procedure: as §1, §2

[4] = system: MDA-MB-231 breast cancer cells; assay: MTT cytotoxicity assay, MDA-MB-231 breast cancer cells; type: cell-based, human; settings: Homo sapiens, MDA-MB-231 cells, 48 h, read-out: IC50, growth inhibition, MDA-MB-231
Procedure: as §1, §2

[5] = target: T1, FASN (Homo sapiens, UniProt P49327); assay: Fatty acid synthase activity assay in SK-Br3 cells (NADPH oxidation, particle-free supernatants); type: cell-based; parameters: FASN activity, % of control cells / FASN activity reduced to / reduction of FASN activity: concentration or dose not given beside the values; settings: for inhibition of FASN activity (in words): SK-Br3 cells treated 6, 12 and 24 hours; for FASN activity reduced to: 12 h exposure
T1 construct: endogenous in cells; host or cells: SK-Br3 breast cancer cells
T1 sequence (P49327 whole entry): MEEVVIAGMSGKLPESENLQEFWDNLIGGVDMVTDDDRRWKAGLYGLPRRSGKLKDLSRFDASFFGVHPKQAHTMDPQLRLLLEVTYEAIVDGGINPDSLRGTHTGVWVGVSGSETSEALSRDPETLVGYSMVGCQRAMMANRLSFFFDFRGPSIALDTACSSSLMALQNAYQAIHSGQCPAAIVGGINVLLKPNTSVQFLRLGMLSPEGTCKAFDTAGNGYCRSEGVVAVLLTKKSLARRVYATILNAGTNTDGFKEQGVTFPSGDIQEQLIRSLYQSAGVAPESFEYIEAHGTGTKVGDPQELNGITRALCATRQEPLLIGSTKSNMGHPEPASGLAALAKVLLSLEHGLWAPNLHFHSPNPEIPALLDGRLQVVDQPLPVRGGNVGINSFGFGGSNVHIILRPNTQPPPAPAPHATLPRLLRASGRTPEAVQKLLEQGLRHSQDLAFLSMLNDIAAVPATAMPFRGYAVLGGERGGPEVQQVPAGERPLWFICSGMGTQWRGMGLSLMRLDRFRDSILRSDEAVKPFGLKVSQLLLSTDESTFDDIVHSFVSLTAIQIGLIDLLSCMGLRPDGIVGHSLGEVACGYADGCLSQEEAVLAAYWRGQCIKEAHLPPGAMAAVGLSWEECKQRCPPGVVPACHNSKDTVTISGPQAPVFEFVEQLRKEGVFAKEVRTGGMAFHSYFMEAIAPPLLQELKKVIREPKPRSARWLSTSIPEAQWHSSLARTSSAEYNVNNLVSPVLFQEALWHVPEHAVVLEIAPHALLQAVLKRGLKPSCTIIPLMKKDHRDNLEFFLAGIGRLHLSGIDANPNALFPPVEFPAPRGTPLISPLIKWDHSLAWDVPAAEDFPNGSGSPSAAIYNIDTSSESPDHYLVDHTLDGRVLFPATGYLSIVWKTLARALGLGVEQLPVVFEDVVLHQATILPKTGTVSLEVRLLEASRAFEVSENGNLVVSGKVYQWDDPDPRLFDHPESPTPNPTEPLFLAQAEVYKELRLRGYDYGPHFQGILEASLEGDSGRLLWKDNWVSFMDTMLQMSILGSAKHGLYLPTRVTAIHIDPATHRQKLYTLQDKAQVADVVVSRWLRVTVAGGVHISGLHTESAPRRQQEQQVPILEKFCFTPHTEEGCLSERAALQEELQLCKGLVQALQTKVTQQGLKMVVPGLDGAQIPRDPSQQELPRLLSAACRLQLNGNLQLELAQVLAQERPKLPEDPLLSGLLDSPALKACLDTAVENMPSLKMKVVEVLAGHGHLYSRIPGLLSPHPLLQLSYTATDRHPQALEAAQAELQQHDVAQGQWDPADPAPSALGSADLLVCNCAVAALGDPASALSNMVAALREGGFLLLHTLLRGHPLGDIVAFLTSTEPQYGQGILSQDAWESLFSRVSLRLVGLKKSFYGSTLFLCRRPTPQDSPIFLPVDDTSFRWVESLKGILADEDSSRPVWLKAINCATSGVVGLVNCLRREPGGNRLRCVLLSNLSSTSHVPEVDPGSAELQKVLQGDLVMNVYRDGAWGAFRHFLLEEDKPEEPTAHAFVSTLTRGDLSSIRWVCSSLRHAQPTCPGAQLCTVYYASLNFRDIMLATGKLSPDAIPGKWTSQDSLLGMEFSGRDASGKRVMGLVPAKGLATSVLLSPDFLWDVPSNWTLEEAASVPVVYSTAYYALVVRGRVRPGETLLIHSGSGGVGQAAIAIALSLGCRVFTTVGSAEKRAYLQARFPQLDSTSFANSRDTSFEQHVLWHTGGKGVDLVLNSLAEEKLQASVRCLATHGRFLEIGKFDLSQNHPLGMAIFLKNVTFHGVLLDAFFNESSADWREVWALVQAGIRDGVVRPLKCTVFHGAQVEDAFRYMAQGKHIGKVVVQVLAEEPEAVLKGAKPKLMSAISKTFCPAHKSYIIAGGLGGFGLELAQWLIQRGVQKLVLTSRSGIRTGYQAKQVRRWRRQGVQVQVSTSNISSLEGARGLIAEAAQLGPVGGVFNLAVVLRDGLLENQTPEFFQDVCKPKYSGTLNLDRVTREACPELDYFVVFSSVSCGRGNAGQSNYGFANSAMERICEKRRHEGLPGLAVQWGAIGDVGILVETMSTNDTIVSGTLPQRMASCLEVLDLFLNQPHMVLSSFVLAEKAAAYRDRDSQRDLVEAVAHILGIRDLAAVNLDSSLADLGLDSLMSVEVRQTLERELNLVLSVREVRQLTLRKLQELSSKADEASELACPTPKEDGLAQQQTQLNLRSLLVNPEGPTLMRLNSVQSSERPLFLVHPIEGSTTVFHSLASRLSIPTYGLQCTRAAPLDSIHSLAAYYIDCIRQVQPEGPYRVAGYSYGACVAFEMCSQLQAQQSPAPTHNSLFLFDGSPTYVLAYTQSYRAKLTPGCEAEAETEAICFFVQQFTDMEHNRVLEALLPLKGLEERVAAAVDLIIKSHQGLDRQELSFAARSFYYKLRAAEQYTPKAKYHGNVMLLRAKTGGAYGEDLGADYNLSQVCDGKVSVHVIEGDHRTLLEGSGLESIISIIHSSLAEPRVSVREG
Procedure: FASN activity of compounds a, b, e, f, h, i, k, m and q was assayed in particle-free supernatants by recording spectrophotometrically at 37° C. (Lambda Bio 20, Perkin Elmer, EUA; using UV Kinlab 2.80.02 software) the decrease of A340nm due to the oxidation of NADPH, as we previously described. After 6, 12, 24 h of exposure to the tested compound, the cells were harvested by treatment with trypsin-EDTA solution, pelleted by centrifugation, washed twice and resuspended in cold PBS. The cells were sonicated during 30 min at 4° C. (PSelecta ultrasons) and centrifuged for 15 min at 4° C. to keep supernatants particle-free. A sample was taken to measure the protein content by a BioRad assay (Bio-Rad Laboratories). One-hundred and twenty micrograms of protein were pre-incubated during 15 min at 37° C. in 0.2 M of potassium phosphate buffer, pH 7.0, for temperature equilibration. The sample was then added to the reaction mixture: 200 mM potassium phosphate buffer, pH 7.0, 1 mM EDTA (Sigma), 1 mM dithiothreitol (Sigma), 30 μM acetyl-CoA (Sigma), 0.24 mM NADPH (Sigma), in 0.3 mL reaction volume were monitored at 340 nm for 3 min to measure the background NADPH oxidation. After the addition of 50 μM of malonyl-CoA (Sigma), the reaction was assayed for additional 10 min to determine FASN-dependent oxidation of NADPH. Rates were corrected for the background rate of NADPH oxidation in the presence of acetyl-CoA. FASN activity was expressed in nmol NADPH oxidized min^−1 mg protein^−1.

| melting point | Compound | IC50 [1] [µM] | IC50 [2] [µM] | IC50 [3] [µM] | effects in cell death / morphology changes in non-malignant cells [3] | IC50 [4] [µM] | inhibition of FASN activity (in words) [5] | FASN activity reduced to ([5]; SK-Br3 cells) [%] | FASN activity, % of control cells ([5]; SK-Br3 cells, 24 h exposure) [%] |
| --- | --- | --- | --- | --- | --- | --- | --- | --- | --- |
| 204 °C (dec.) | Cc1c(O)cc(C(=O)Oc2ccc(OC(=O)c3cc(O)c(C)c(O)c3)c3c2CCCC3)cc1O [aa, 1,4-bis[(3,5-dihydroxy-4-methylbenzoyl)oxy]-5,6,7,8-tetrahydronaphthalene] | 49.5 ± 4.9 |  |  |  |  |  |  |  |
|  | Cc1cc(OC(=O)c2cc(O)c(O)c(O)c2)ccc1OC(=O)c1cc(O)c(O)c(O)c1 [c, 2-methyl-1,4-bis[(3,4,5-trihydroxybenzoyl)oxy]benzene] | 23.3 ± 2.1 | 4.5 | > 100 | No significant effects | 54.7 ± 7.6 |  |  |  |
|  | COC(=O)c1cc(OC(=O)c2cc(O)c(O)c(O)c2)c2ccccc2c1OC(=O)c1cc(O)c(Br)c(O)c1 [cc, methyl 1-[(4-bromo-3,5-dihydroxybenzoyl)oxy]-4-[(3,4,5-trihydroxybenzoyl)oxy]-2-naphthoate] | 16.5 ± 4.9 |  | 91.5 ± 2.1 | No significant effects |  |  |  |  |
|  | COc1cc(OC(=O)c2cc(O)c(O)c(O)c2)ccc1OC(=O)c1cc(O)c(O)c(O)c1 [d, 2-methoxy-1,4-bis[(3,4,5-trihydroxybenzoyl)oxy]benzene] | 8.3 ± 1.1 | 30 ± 0.1 | > 50 | No significant effects | 28 ± 1 |  |  |  |
|  | COC(=O)c1cc(OC(=O)c2cc(O)c(O)c(O)c2)c2ccccc2c1OC(=O)c1cccc(O)c1 [dd, methyl 1-[(3-hydroxybenzoyl)oxy]-4-[(3,4,5-trihydroxybenzoyl)oxy]-2-naphthoate] | 15.5 ± 3.5 |  | 39.5 ± 6.4 | No significant effects |  |  |  |  |
|  | COC(=O)c1cc(OC(=O)c2cc(O)c(O)c(O)c2)c2ccccc2c1OC(=O)c1ccc(O)cc1 [ee, methyl 1-[(4-hydroxybenzoyl)oxy]-4-[(3,4,5-trihydroxybenzoyl)oxy]-2-naphthoate] | 33 ± 1.4 |  | 67.5 ± 4.9 | No significant effects |  |  |  |  |
| 167 to 169 °C | O=C(Oc1cc(OC(=O)c2cc(O)cc(O)c2)c2ccccc2c1)c1cc(O)cc(O)c1 [g, 1,3-bis[(3,5-dihydroxybenzoyl)oxy]naphthalene] | 107 ± 29.7 |  |  |  | 121 ± 5.7 |  |  |  |
|  | O=C(Oc1cc(OC(=O)c2ccc(O)c(O)c2)c2ccccc2c1)c1ccc(O)c(O)c1 [h, 1,3-bis[(3,4-dihydroxybenzoyl)oxy]naphthalene] | 20.7 ± 11.5 |  | 105 | No significant effects | 19 ± 1.1 | inhibit FASN activity | 77 |  |
| 201 to 203 °C | O=C(Oc1ccc(OC(=O)c2cc(O)cc(O)c2)c2ccccc12)c1cc(O)cc(O)c1 [j, 1,4-bis[(3,5-dihydroxybenzoyl)oxy]naphthalene] | 115 ± 7.1 |  |  |  | 24 ± 0.9 |  |  |  |
|  | O=C(Oc1ccc(OC(=O)c2ccc(O)c(O)c2)c2ccccc12)c1ccc(O)c(O)c1 [k, 1,4-bis[(3,4-dihydroxybenzoyl)oxy]naphthalene] | 37.5 ± 6.4 | 49.3 ± 10 | 68 | No significant effects | 27 ± 11.3 | inhibit FASN activity | 44 |  |
|  | O=C(Oc1ccc2cc(OC(=O)c3cc(O)c(O)c(O)c3)ccc2c1)c1cc(O)c(O)c(O)c1 [l, 2,6-bis[(3,4,5-trihydroxybenzoyl)oxy]naphthalene] | 5.5 ± 1 | 13 ± 1.8 | > 200 | No significant effects | 15.3 ± 1 |  |  |  |
|  | O=C(Oc1cccc2c(OC(=O)c3cc(O)c(O)c(O)c3)cccc12)c1cc(O)c(O)c(O)c1 [m, 1,5-bis[(3,4,5-trihydroxybenzoyl)oxy]naphthalene] | 25.7 ± 3 | 69 ± 14 | > 150 | No significant effects | 186 ± 10 | inhibit FASN activity; also recorded: decreased in a time-dependent manner | 77 | 76 |
| 285 °C (dec.) | O=C(Oc1ccc(-c2ccc(OC(=O)c3cc(O)nc(O)c3)cc2)cc1)c1cc(O)nc(O)c1 [r, 4,4′-bis[(2,6-dihydroxyisonicotinoyl)oxy]-1,1′-biphenyl] |  |  |  |  |  |  |  |  |
|  | O=C(Oc1ccc(-c2ccc(OC(=O)c3cc(O)cc(O)c3)cc2)cc1)c1cc(O)cc(O)c1 [s, 4,4′-bis[(3,5-dihydroxybenzoyl)oxy]-1,1′-biphenyl] | 7.3 ± 2 |  | 33 ± 3 | No significant effects | 5.75 ± 2 |  |  |  |
| 286 °C (dec.) | O=C(Oc1ccc(-c2ccc(OC(=O)c3ccc(O)c(O)c3)cc2)cc1)c1ccc(O)c(O)c1 [t, 4,4′-bis[(3,4-dihydroxybenzoyl)oxy]-1,1′-biphenyl] | 90 |  |  |  |  |  |  |  |
| 252 to 254 °C | O=C(Oc1ccc(-c2ccc(OC(=O)c3cc(O)c(Br)c(O)c3)cc2)cc1)c1ccc(O)c(O)c1 [u, 4′[(3,4-dihydroxybenzoyl)oxy]-1,1′-biphenyl-4-yl 4-bromo-3,5-dihydroxybenzoate] | 31 |  |  |  |  |  |  |  |
| 240 °C (dec.) | COc1cc(C(=O)Oc2ccc(-c3ccc(OC(=O)c4ccc(O)c(O)c4)cc3)cc2)cc(O)c1O [v, 4′[(3,4-dihydroxybenzoyl)oxy]-1,1′-biphenyl-4-yl 3,4-dihydroxy-5-methoxybenzoate] | < 1 |  |  |  |  |  |  |  |
|  | O=C(Oc1cc(OC(=O)c2cc(O)c(Br)c(O)c2)c2ccccc2c1)c1cc(O)c(Br)c(O)c1 [w, 1,3-bis[(4-bromo-3,5-dihydroxybenzoyl)oxy]naphthalene] | 46.7 ± 11.7 |  | 79.5 ± 14.8 | No significant effects |  |  |  |  |
| 260 °C (dec.) | COc1cc(C(=O)Oc2cc(OC(=O)c3cc(O)c(O)c(OC)c3)c3ccccc3c2)cc(O)c1O [x, 1,3-bis[(3,4-dihydroxy-5-methoxybenzoyl)oxy]naphthalene] | 3 |  |  |  |  |  |  |  |
|  | O=C(Oc1cc2c(c(OC(=O)c3cc(O)c(O)c(O)c3)c1)CCCC2)c1cc(O)c(O)c(O)c1 [y, 1,3-bis[(3,4,5-trihydroxybenzoyl)oxy]-5,6,7,8-tetrahydronaphthalene] | 31 ± 3 | 81 ± 16 | > 150 | No significant effects | 98 ± 11 |  |  |  |
|  | O=C(Oc1ccc(OC(=O)c2cc(O)c(O)c(O)c2)c2c1CCCC2)c1cc(O)c(O)c(O)c1 [z, 1,4-bis[(3,4,5-trihydroxybenzoyl)oxy]-5,6,7,8-tetrahydronaphthalene] | 41 ± 3 | 43 ± 10 | 128 ± 32 | No significant effects | 104 ± 10 |  |  |  |
